Measured values: patent US20250295646A1, “METHODS OF USE OF T-TYPE CALCIUM CHANNEL MODULATORS” (Praxis Precision Medicines, Inc., priority 2022, published 2025)

Test system: adult patients with essential tremor
Assay: Essential tremor trial Example 16 Part A (open label 20-40 mg): TETRAS efficacy
Type: in vivo, human
Details: for TETRAS CULS Score CFB LS Mean / TETRAS PS Item 6: Archimedes Spiral (Left) Score CFB LS Mean / TETRAS PS Item 6: Archimedes Spiral (Right) Score CFB LS Mean / TETRAS PS Item 7: Handwriting Score CFB LS Mean / TETRAS PSTS Score CFB LS Mean / TETRAS ULS Score CFB LS Mean / TETRAS CULS CTA LS Mean % / TETRAS PS Item 6: Archimedes Spiral (Left) CTA LS Mean % / TETRAS PS Item 6: Archimedes Spiral (Right) CTA LS Mean % / TETRAS PS Item 7: Handwriting CTA LS Mean % / TETRAS PSTS CTA LS Mean % / TETRAS ULS CTA LS Mean %: FAS
Experimental: A two part trial (Part A and Part B as described below) was conducted to study the efficacy, safety, tolerability, and pharmacokinetics of the compound of formula (I) in adult patients with essential tremor (ET).
Participants were males and females ages 18 and older with a clinical diagnosis of ET. Participants who have a history of any other medical, neurological, or psychiatric condition that may explain or cause tremor were excluded. Participants who have previously received treatment with formula (I) in any clinical trial (including Part A of the current trial for participants enrolling in Part B) were also excluded.
In Part A, an open label trial was conducted.

[1] = Day 7, change from pre-dose baseline
[2] = Day 7, change in tremor amplitude from pre-dose baseline
[3] = Day 14, change from pre-dose baseline
[4] = Day 14, change in tremor amplitude from pre-dose baseline
[5] = Day 21 (FU Assessment), change from pre-dose baseline
[6] = Day 21 (FU Assessment), change in tremor amplitude from pre-dose baseline

Structure (SMILES): CC(C)(C)NC(=O)CN1CCC(CNC(=O)c2cc(F)cc(Cl)c2)CC1 [compound of formula (I), N-((1-(2-(tert-butylamino)-2-oxoethyl)piperidin-4-yl)methyl)-3-chloro-5-fluorobenzamide]
- TETRAS combined upper limb score, LS mean change from pre-dose baseline (Day 7): −1.667
- TETRAS upper limb score, LS mean change from pre-dose baseline (Day 7): −1.427
- reduction in combined upper limb tremor amplitude (Day 7): 16.0%
- reduction in upper limb tremor amplitude (Day 7): 23.9%
- TETRAS combined upper limb score, LS mean change from pre-dose baseline (Day 14): −4.239
- TETRAS upper limb score, LS mean change from pre-dose baseline (Day 14): −2.912
- reduction in combined upper limb tremor amplitude (Day 14): 35.8%
- reduction in upper limb tremor amplitude (Day 14): 42.8%
- TETRAS combined upper limb score, LS mean change from pre-dose baseline (Day 21 follow-up): −0.278
- reduction in combined upper limb tremor amplitude (Day 21 follow-up): 2.9%
- reduction in upper limb tremor amplitude (Day 21 follow-up): 20.3%
- TETRAS upper limb score, LS mean change from pre-dose baseline (Day 21 follow-up (1 week after cessation)): −1.183
- TETRAS CULS Score CFB LS Mean [1]: −1.667
- TETRAS PS Item 6: Archimedes Spiral (Left) Score CFB LS Mean [1]: −0.213
- TETRAS PS Item 6: Archimedes Spiral (Right) Score CFB LS Mean [1]: −0.091
- TETRAS PS Item 7: Handwriting Score CFB LS Mean [1]: −0.012
- TETRAS PSTS Score CFB LS Mean [1]: −1.990
- TETRAS ULS Score CFB LS Mean [1]: −1.427
- TETRAS CULS CTA LS Mean % [2]: −16.0%
- TETRAS PS Item 6: Archimedes Spiral (Left) CTA LS Mean % [2]: −21.8%
- TETRAS PS Item 6: Archimedes Spiral (Right) CTA LS Mean % [2]: −9.9%
- TETRAS PS Item 7: Handwriting CTA LS Mean % [2]: −1.4%
- TETRAS PSTS CTA LS Mean % [2]: −13.3%
- TETRAS ULS CTA LS Mean % [2]: −23.9%
- TETRAS CULS Score CFB LS Mean [3]: −4.239
- TETRAS PS Item 6: Archimedes Spiral (Left) Score CFB LS Mean [3]: −0.468
- TETRAS PS Item 6: Archimedes Spiral (Right) Score CFB LS Mean [3]: −0.346
- TETRAS PS Item 7: Handwriting Score CFB LS Mean [3]: −0.348
- TETRAS PSTS Score CFB LS Mean [3]: −5.163
- TETRAS ULS Score CFB LS Mean [3]: −2.912
- TETRAS CULS CTA LS Mean % [4]: −35.8%
- TETRAS PS Item 6: Archimedes Spiral (Left) CTA LS Mean % [4]: −41.7%
- TETRAS PS Item 6: Archimedes Spiral (Right) CTA LS Mean % [4]: −32.9%
- TETRAS PS Item 7: Handwriting CTA LS Mean % [4]: −33.0%
- TETRAS PSTS CTA LS Mean % [4]: −31.0%
- TETRAS ULS CTA LS Mean % [4]: −42.8%
- TETRAS CULS Score CFB LS Mean [5]: −0.278
- TETRAS PS Item 6: Archimedes Spiral (Left) Score CFB LS Mean [5]: 0.201
- TETRAS PS Item 6: Archimedes Spiral (Right) Score CFB LS Mean [5]: −0.061
- TETRAS PS Item 7: Handwriting Score CFB LS Mean [5]: 0.330
- TETRAS PSTS Score CFB LS Mean [5]: −1.293
- TETRAS ULS Score CFB LS Mean [5]: −1.183
- TETRAS CULS CTA LS Mean % [6]: −2.9%
- TETRAS PS Item 6: Archimedes Spiral (Left) CTA LS Mean % [6]: 20.7%
- TETRAS PS Item 6: Archimedes Spiral (Right) CTA LS Mean % [6]: −6.7%
- TETRAS PS Item 7: Handwriting CTA LS Mean % [6]: 31.6%
- TETRAS PSTS CTA LS Mean % [6]: −8.9%
- TETRAS ULS CTA LS Mean % [6]: −20.3%
